Experimental data from PubChem BioAssay AID1919015 (Molecular Pharmacology Branch, DTP, NCI, 2023).
pIC50: −log10 of the molar value.

System: OVCAR-5 complex spheroids with HUVEC/MSC, viability, % test/control
Assay: Anticancer human tumor OVCAR-5 cell line growth inhibition [AhR];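 note: spheroids exposed to compounds for 7 days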;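 for viability, T/C: 100% = DMSO vehicle control wells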
Conditions: for pIC50: curve of first compound; for viability, T/C: stronger effect = lower value
Procedure, shortened: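 Agents were dosed in half-log steps down from roughly clinical Cmax, or from 10 microM where Cmax was unknown, alone and with AhR antagonists. Read-out: percent test/control growth of tumor spheroids containing HUVEC and MSC stromal cells.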

[1] = second compound 0.1 µM, first compound 0.0316 µM
[2] = second compound 0.1 µM, first compound 0.1 µM
[3] = second compound 0.1 µM, first compound 0.316 µM
[4] = second compound 0.1 µM, first compound 1 µM
[5] = second compound 0.1 µM, first compound 3.16 µM
[6] = second compound 0.1 µM, first compound 10 µM
[7] = second compound 0.316 µM, first compound 0.0316 µM
[8] = second compound 0.316 µM, first compound 0.1 µM
[9] = second compound 0.316 µM, first compound 0.316 µM
[10] = second compound 0.316 µM, first compound 1 µM
[11] = second compound 0.316 µM, first compound 3.16 µM
[12] = second compound 0.316 µM, first compound 10 µM
[13] = second compound 1 µM, first compound 0.0316 µM
[14] = second compound 1 µM, first compound 0.1 µM
[15] = second compound 1 µM, first compound 0.316 µM
[16] = second compound 1 µM, first compound 1 µM
[17] = second compound 1 µM, first compound 3.16 µM
[18] = second compound 1 µM, first compound 10 µM
[19] = second compound 3.16 µM, first compound 0.0316 µM
[20] = second compound 3.16 µM, first compound 0.1 µM
[21] = second compound 3.16 µM, first compound 0.316 µM
[22] = second compound 3.16 µM, first compound 1 µM
[23] = second compound 3.16 µM, first compound 3.16 µM
[24] = second compound 3.16 µM, first compound 10 µM
[25] = second compound 10 µM, first compound 0.0316 µM
[26] = second compound 10 µM, first compound 0.1 µM
[27] = second compound 10 µM, first compound 0.316 µM
[28] = second compound 10 µM, first compound 1 µM
[29] = second compound 10 µM, first compound 3.16 µM
[30] = second compound 10 µM, first compound 10 µM
[31] = second compound 0.1 µM, first compound 0.00949 µM
[32] = second compound 0.1 µM, first compound 0.03 µM
[33] = second compound 0.1 µM, first compound 0.0949 µM
[34] = second compound 0.1 µM, first compound 0.3 µM
[35] = second compound 0.1 µM, first compound 0.949 µM
[36] = second compound 0.1 µM, first compound 3 µM
[37] = second compound 0.316 µM, first compound 0.00949 µM
[38] = second compound 0.316 µM, first compound 0.03 µM
[39] = second compound 0.316 µM, first compound 0.0949 µM
[40] = second compound 0.316 µM, first compound 0.3 µM
[41] = second compound 0.316 µM, first compound 0.949 µM
[42] = second compound 0.316 µM, first compound 3 µM
[43] = second compound 1 µM, first compound 0.00949 µM
[44] = second compound 1 µM, first compound 0.03 µM
[45] = second compound 1 µM, first compound 0.0949 µM
[46] = second compound 1 µM, first compound 0.3 µM
[47] = second compound 1 µM, first compound 0.949 µM
[48] = second compound 1 µM, first compound 3 µM
[49] = second compound 3.16 µM, first compound 0.00949 µM
[50] = second compound 3.16 µM, first compound 0.03 µM
[51] = second compound 3.16 µM, first compound 0.0949 µM
[52] = second compound 3.16 µM, first compound 0.3 µM
[53] = second compound 3.16 µM, first compound 0.949 µM
[54] = second compound 3.16 µM, first compound 3 µM
[55] = second compound 10 µM, first compound 0.00949 µM
[56] = second compound 10 µM, first compound 0.03 µM
[57] = second compound 10 µM, first compound 0.0949 µM
[58] = second compound 10 µM, first compound 0.3 µM
[59] = second compound 10 µM, first compound 0.949 µM
[60] = second compound 10 µM, first compound 3 µM

SMILES: CC1(C)CCC(CN2CCN(c3ccc(C(=O)NS(=O)(=O)c4ccc(NCC5CCOCC5)c([N+](=O)[O-])c4)c(Oc4cnc5[nH]ccc5c4)c3)CC2)=C(c2ccc(Cl)cc2)C1 + CC(CO)NC(=O)c1cc(-c2ccc(Cl)cc2)nn(-c2cnn(C)c2)c1=O
- pIC50 (second compound 0.1 µM): < 5.00
- pIC50 (second compound 0.316 µM): < 5.00
- pIC50 (second compound 1 µM): < 5.00
- pIC50 (second compound 3.16 µM): < 5.00
- pIC50 (second compound 10 µM): < 5.00
- viability, T/C [1]: 107%
- viability, T/C [2]: 107%
- viability, T/C [3]: 109%
- viability, T/C [4]: 113%
- viability, T/C [5]: 118%
- viability, T/C [6]: 51.4%
- viability, T/C [7]: 111%
- viability, T/C [8]: 107%
- viability, T/C [9]: 113%
- viability, T/C [10]: 114%
- viability, T/C [11]: 118%
- viability, T/C [12]: 50.6%
- viability, T/C [13]: 115%
- viability, T/C [14]: 116%
- viability, T/C [15]: 122%
- viability, T/C [16]: 120%
- viability, T/C [17]: 122%
- viability, T/C [18]: 53.8%
- viability, T/C [19]: 102%
- viability, T/C [20]: 106%
- viability, T/C [21]: 104%
- viability, T/C [22]: 111%
- viability, T/C [23]: 114%
- viability, T/C [24]: 53.8%
- viability, T/C [25]: 100%
- viability, T/C [26]: 102%
- viability, T/C [27]: 104%
- viability, T/C [28]: 104%
- viability, T/C [29]: 106%
- viability, T/C [30]: 57.6%

SMILES: CC1COCCN1c1cc(C2(S(C)(=N)=O)CC2)nc(-c2ccnc3[nH]ccc23)n1 (stereo not given) + CC(CO)NC(=O)c1cc(-c2ccc(Cl)cc2)nn(-c2cnn(C)c2)c1=O
- pIC50 (second compound 0.1 µM): 5.04
- pIC50 (second compound 0.316 µM): 5.00
- pIC50 (second compound 1 µM): < 5.00
- pIC50 (second compound 3.16 µM): 5.05
- pIC50 (second compound 10 µM): 5.18
- viability, T/C [1]: 106%
- viability, T/C [2]: 105%
- viability, T/C [3]: 104%
- viability, T/C [4]: 101%
- viability, T/C [5]: 80.9%
- viability, T/C [6]: 47.1%
- viability, T/C [7]: 109%
- viability, T/C [8]: 105%
- viability, T/C [9]: 107%
- viability, T/C [10]: 108%
- viability, T/C [11]: 81.6%
- viability, T/C [12]: 49.7%
- viability, T/C [13]: 116%
- viability, T/C [14]: 112%
- viability, T/C [15]: 112%
- viability, T/C [16]: 109%
- viability, T/C [17]: 89.9%
- viability, T/C [18]: 53%
- viability, T/C [19]: 108%
- viability, T/C [20]: 101%
- viability, T/C [21]: 100%
- viability, T/C [22]: 93.1%
- viability, T/C [23]: 77.2%
- viability, T/C [24]: 46.7%
- viability, T/C [25]: 96.1%
- viability, T/C [26]: 97.5%
- viability, T/C [27]: 95.4%
- viability, T/C [28]: 83.8%
- viability, T/C [29]: 61.5%
- viability, T/C [30]: 43.7%

SMILES: CCN(c1cc(-c2ccc(CN3CCOCC3)cc2)cc(C(=O)NCc2c(C)cc(C)[nH]c2=O)c1C)C1CCOCC1 + CC(CO)NC(=O)c1cc(-c2ccc(Cl)cc2)nn(-c2cnn(C)c2)c1=O
- pIC50 (second compound 0.1 µM): < 5.52
- pIC50 (second compound 0.316 µM): < 5.52
- pIC50 (second compound 1 µM): < 5.52
- pIC50 (second compound 3.16 µM): < 5.52
- pIC50 (second compound 10 µM): < 5.52
- viability, T/C [31]: 114%
- viability, T/C [32]: 111%
- viability, T/C [33]: 111%
- viability, T/C [34]: 110%
- viability, T/C [35]: 106%
- viability, T/C [36]: 109%
- viability, T/C [37]: 113%
- viability, T/C [38]: 117%
- viability, T/C [39]: 114%
- viability, T/C [40]: 107%
- viability, T/C [41]: 111%
- viability, T/C [42]: 110%
- viability, T/C [43]: 116%
- viability, T/C [44]: 118%
- viability, T/C [45]: 119%
- viability, T/C [46]: 115%
- viability, T/C [47]: 113%
- viability, T/C [48]: 117%
- viability, T/C [49]: 108%
- viability, T/C [50]: 113%
- viability, T/C [51]: 107%
- viability, T/C [52]: 98.8%
- viability, T/C [53]: 91.8%
- viability, T/C [54]: 97.8%
- viability, T/C [55]: 102%
- viability, T/C [56]: 106%
- viability, T/C [57]: 99%
- viability, T/C [58]: 97.7%
- viability, T/C [59]: 98.1%
- viability, T/C [60]: 99.9%

SMILES: Nc1ncn(C2CC(O)C(CO)S2)c(=O)n1 (stereo not given) + CC(CO)NC(=O)c1cc(-c2ccc(Cl)cc2)nn(-c2cnn(C)c2)c1=O
- pIC50 (second compound 0.1 µM): < 6.52
- pIC50 (second compound 0.316 µM): < 6.52
- pIC50 (second compound 1 µM): < 6.52
- pIC50 (second compound 3.16 µM): < 6.52
- pIC50 (second compound 10 µM): < 6.52
- viability, T/C (second compound 0.1 µM, first compound 0.000949 µM): 104%
- viability, T/C (second compound 0.1 µM, first compound 0.003 µM): 110%
- viability, T/C [31]: 106%
- viability, T/C [32]: 110%
- viability, T/C [33]: 103%
- viability, T/C [34]: 85.3%
- viability, T/C (second compound 0.316 µM, first compound 0.000949 µM): 103%
- viability, T/C (second compound 0.316 µM, first compound 0.003 µM): 109%
- viability, T/C [37]: 109%
- viability, T/C [38]: 105%
- viability, T/C [39]: 101%
- viability, T/C [40]: 84.6%
- viability, T/C (second compound 1 µM, first compound 0.000949 µM): 109%
- viability, T/C (second compound 1 µM, first compound 0.003 µM): 112%
- viability, T/C [43]: 113%
- viability, T/C [44]: 109%
- viability, T/C [45]: 106%
- viability, T/C [46]: 91.9%
- viability, T/C (second compound 3.16 µM, first compound 0.000949 µM): 101%
- viability, T/C (second compound 3.16 µM, first compound 0.003 µM): 104%
- viability, T/C [49]: 102%
- viability, T/C [50]: 104%
- viability, T/C [51]: 93.3%
- viability, T/C [52]: 83.5%
- viability, T/C (second compound 10 µM, first compound 0.000949 µM): 99.7%
- viability, T/C (second compound 10 µM, first compound 0.003 µM): 101%
- viability, T/C [55]: 98.9%
- viability, T/C [56]: 98.4%
- viability, T/C [57]: 93%
- viability, T/C [58]: 86.2%

SMILES: O=C(C=Cn1cnc(-c2cc(C(F)(F)F)cc(C(F)(F)F)c2)n1)NNc1cnccn1 + CC(CO)NC(=O)c1cc(-c2ccc(Cl)cc2)nn(-c2cnn(C)c2)c1=O
- pIC50 (second compound 0.1 µM): 5.72
- pIC50 (second compound 0.316 µM): 5.66
- pIC50 (second compound 1 µM): 5.57
- pIC50 (second compound 3.16 µM): 5.69
- pIC50 (second compound 10 µM): 5.78
- viability, T/C [31]: 109%
- viability, T/C [32]: 113%
- viability, T/C [33]: 101%
- viability, T/C [34]: 86.7%
- viability, T/C [35]: 66.4%
- viability, T/C [36]: 39.6%
- viability, T/C [37]: 110%
- viability, T/C [38]: 110%
- viability, T/C [39]: 104%
- viability, T/C [40]: 86%
- viability, T/C [41]: 64%
- viability, T/C [42]: 44.7%
- viability, T/C [43]: 113%
- viability, T/C [44]: 114%
- viability, T/C [45]: 111%
- viability, T/C [46]: 90.1%
- viability, T/C [47]: 70.2%
- viability, T/C [48]: 47.5%
- viability, T/C [49]: 101%
- viability, T/C [50]: 112%
- viability, T/C [51]: 103%
- viability, T/C [52]: 87.5%
- viability, T/C [53]: 69.7%
- viability, T/C [54]: 40.1%
- viability, T/C [55]: 97%
- viability, T/C [56]: 98.2%
- viability, T/C [57]: 97.6%
- viability, T/C [58]: 83.3%
- viability, T/C [59]: 65.8%
- viability, T/C [60]: 34.2%
